Our source for the T/C values is PubChem BioAssay AID292 (DTP/NCI, 2004).

In the test the test system is B6C3F1 mice, ip Sarcoma M5076, median survival T/C. Put plainly: NCI In Vivo Anticancer Drug Screen. Data for tumor model Sarcoma M5076 (intraperitoneal) in B6C3F1 mice. Conditions: endpoint: median survival time, higher = longer survival. The method in brief:
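Antitumour effect is judged in tumour-bearing mice by comparing survival after compound dosing against vehicle-only animals, reported as T/C.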

Where [1] appears, read: dose: 25.0 mg/kg/injection, schedule: Q04DX004 (ip), vehicle: Klucel (hydroxypropylcellulose) (HPC).
The mark [2] stands for this setting: dose: 50.0 mg/kg/injection, schedule: Q04DX004 (ip), vehicle: Klucel (hydroxypropylcellulose) (HPC).
Setting [3] is: dose: 100.0 mg/kg/injection, schedule: Q04DX004 (ip), vehicle: Klucel (hydroxypropylcellulose) (HPC).
Setting [4] is: dose: 200.0 mg/kg/injection, schedule: Q04DX004 (ip), vehicle: Klucel (hydroxypropylcellulose) (HPC).
[5] abbreviates: dose: 25.0 mg/kg/injection, schedule: Q04DX004 (ip), vehicle: saline with Tween-80.
Setting [6] is: dose: 50.0 mg/kg/injection, schedule: Q04DX004 (ip), vehicle: saline with Tween-80.
Setting [7] is: dose: 100.0 mg/kg/injection, schedule: Q04DX004 (ip), vehicle: saline with Tween-80.
The mark [8] stands for this setting: dose: 200.0 mg/kg/injection, schedule: Q04DX004 (ip), vehicle: saline with Tween-80.
Setting [9] is: dose: 400.0 mg/kg/injection, schedule: Q04DX004 (ip), vehicle: saline with Tween-80.
Setting [10] is: dose: 12.5 mg/kg/injection, schedule: Q04DX004 (ip), vehicle: saline with Tween-80.
[11] abbreviates: dose: 400.0 mg/kg/injection, schedule: Q04DX004 (ip), vehicle: Klucel (hydroxypropylcellulose) (HPC).
Setting [12] is: dose: 800.0 mg/kg/injection, schedule: Q04DX004 (ip), vehicle: Klucel (hydroxypropylcellulose) (HPC).

SMILES strings stand for the structures. Where “and” joins values, the source holds several entries; their conditions need not be identical. Equal entries are not always repeated. Toxic doses and inconclusive results are not listed.

Take `CN(C)C=O`: the T/C reads like this: (dose: 10.0 mg/kg/injection, schedule: Q04DX004 (ip), vehicle: saline) 104 % of control; (dose: 20.0 mg/kg/injection, schedule: Q04DX004 (ip), vehicle: saline) 111 % of control; (dose: 40.0 mg/kg/injection, schedule: Q04DX004 (ip), vehicle: saline) 104 % of control; (dose: 80.0 mg/kg/injection, schedule: Q04DX004 (ip), vehicle: saline) 100 % of control; (dose: 100.0 mg/kg/injection, schedule: Q04DX004 (ip), vehicle: saline) 103 % of control; (dose: 160.0 mg/kg/injection, schedule: Q04DX004 (ip), vehicle: saline) 104 % of control. For the same molecule, the T/C runs as follows: (dose: 200.0 mg/kg/injection, schedule: Q04DX004 (ip), vehicle: saline) 107 % of control; (dose: 400.0 mg/kg/injection, schedule: Q04DX004 (ip), vehicle: saline) 100 % of control; (dose: 800.0 mg/kg/injection, schedule: Q04DX004 (ip), vehicle: saline) 107 % of control; (dose: 1600.0 mg/kg/injection, schedule: Q04DX004 (ip), vehicle: saline) 108 % of control.

As to `CCCCCNc1ncnc2c(C)[nH]nc12`, the T/C reads like this: under setting [1], 105 % of control; under setting [2], 97 % of control; under setting [3], 103 % of control; under setting [4], 88 % of control.

Turning to `[N-]=[N+]=NCc1cnnn1C1OC(CO)C(O)C1O` (configuration not stated), the T/C was 104 % of control (dose: 37.5 mg/kg/injection, schedule: Q04DX004 (ip), vehicle: saline); 103 % of control (dose: 75.0 mg/kg/injection, schedule: Q04DX004 (ip), vehicle: saline); 104 % of control (dose: 150.0 mg/kg/injection, schedule: Q04DX004 (ip), vehicle: saline); 107 % of control (dose: 300.0 mg/kg/injection, schedule: Q04DX004 (ip), vehicle: saline); 103 % of control (dose: 600.0 mg/kg/injection, schedule: Q04DX004 (ip), vehicle: saline).

Turning to `COc1cc2c(c3c1/c(=N/N(C)C)c1ccccc1n3C)C=CC(C)(C)O2`, the T/C was 110 % of control under setting [5], 105 % of control under setting [6], 110 % of control under setting [7] and 110 % of control under setting [8].

For the molecule `Clc1cccc(Cl)c1C(Nc1nncs1)Nc1nncs1`, the T/C was 112 % of control and 122 % of control under setting [6]; 123 % of control under setting [7]; 164 % of control under setting [9]; 157 % of control and 195 % of control (dose: 800.0 mg/kg/injection, schedule: Q04DX004 (ip), vehicle: saline with Tween-80).

As for `O=C1CN2CCN3CC(=O)NC(=O)[C@H]3[C@@H]2C(=O)N1`, the T/C reads like this: (dose: 31.0 mg/kg/injection, schedule: Q04DX004 (ip), vehicle: saline with Tween-80) 93 % of control; (dose: 62.0 mg/kg/injection, schedule: Q04DX004 (ip), vehicle: saline with Tween-80) 94 % of control; (dose: 125.0 mg/kg/injection, schedule: Q04DX004 (ip), vehicle: saline with Tween-80) 93 % of control; (dose: 250.0 mg/kg/injection, schedule: Q04DX004 (ip), vehicle: saline with Tween-80) 100 % of control; (dose: 500.0 mg/kg/injection, schedule: Q04DX004 (ip), vehicle: saline with Tween-80) 98 % of control.

Regarding `c1ccc2c(c1)[nH]c1c2c(N2CCOCC2)nn2cnnc12`, the T/C under setting [10] is 92 % of control; the T/C under setting [5] was 88 % of control and 96 % of control; the T/C under setting [6] was 100 % of control; the T/C under setting [7] was 95 % of control; the T/C under setting [8] was 87 % of control.

In the case of `COc1ccc(CNC(=O)C2C(=O)C(=O)N(Cc3ccc(OC)c(OC)c3)C2=O)cc1OC` (configuration not stated), the T/C (dose: 28.13 mg/kg/injection, schedule: Q04DX004 (ip), vehicle: Klucel (hydroxypropylcellulose) (HPC)) is 95 % of control; the T/C (dose: 56.25 mg/kg/injection, schedule: Q04DX004 (ip), vehicle: Klucel (hydroxypropylcellulose) (HPC)) is 100 % of control; the T/C (dose: 112.5 mg/kg/injection, schedule: Q04DX004 (ip), vehicle: Klucel (hydroxypropylcellulose) (HPC)) is 97 % of control; the T/C (dose: 225.0 mg/kg/injection, schedule: Q04DX004 (ip), vehicle: Klucel (hydroxypropylcellulose) (HPC)) was 94 % of control; the T/C (dose: 450.0 mg/kg/injection, schedule: Q04DX004 (ip), vehicle: Klucel (hydroxypropylcellulose) (HPC)) is 92 % of control.

For the molecule `COc1cc(/C=C/[N+](=O)[O-])cc(Br)c1OC`, the T/C runs as follows: under setting [10], 95 % of control; under setting [5], 90 % of control; under setting [6], 94 % of control; under setting [7], 107 % of control.

On to `O=C(Nc1cc(Cl)ccc1C(=O)O)c1cccc(C[n+]2ccccc2)c1`, for which the T/C is, setting by setting: under setting [6], 100 % of control; under setting [7], 104 % of control; under setting [8], 95 % of control; under setting [9], 88 % of control.

For the molecule `O=C(Nc1cccnc1)c1ccc([N+](=O)[O-])s1`, the T/C is, setting by setting: (dose: 3.0 mg/kg/injection, schedule: Q04DX004 (ip), vehicle: saline) 102 % of control; (dose: 6.0 mg/kg/injection, schedule: Q04DX004 (ip), vehicle: saline) 97 % of control; (dose: 12.0 mg/kg/injection, schedule: Q04DX004 (ip), vehicle: saline) 96 % of control; (dose: 24.0 mg/kg/injection, schedule: Q04DX004 (ip), vehicle: saline) 87 % of control; (dose: 48.0 mg/kg/injection, schedule: Q04DX004 (ip), vehicle: saline) 89 % of control.

On to `OC1OC2COC(c3ccccc3)OC2C(O)C1O` (configuration not stated), for which the T/C is, setting by setting: (dose: 18.75 mg/kg/injection, schedule: Q04DX004 (ip), vehicle: water) 109 % of control; (dose: 37.5 mg/kg/injection, schedule: Q04DX004 (ip), vehicle: water) 89 % of control; (dose: 75.0 mg/kg/injection, schedule: Q04DX004 (ip), vehicle: water) 96 % of control; (dose: 150.0 mg/kg/injection, schedule: Q04DX004 (ip), vehicle: water) 101 % of control; (dose: 300.0 mg/kg/injection, schedule: Q04DX004 (ip), vehicle: water) 98 % of control; (dose: 600.0 mg/kg/injection, schedule: Q04DX004 (ip), vehicle: water) 94 % of control.

Turning to `O=C(N/N=C/c1ccc(O)cc1)c1ccc(OCc2nc3ccccc3[nH]2)cc1`, the T/C was 96 % of control under setting [1], 93 % of control under setting [3] and 92 % of control under setting [11].

In the case of `CCOC(=O)Cn1nc2oc(=O)c(CCN3CCN(c4ccccc4OC)CC3)c(C)c2c1C`, the T/C reads like this: under setting [2], 103 % of control; under setting [3], 103 % of control; under setting [4], 90 % of control; under setting [11], 94 % of control; under setting [12], 89 % of control.

Turning to `COC(=O)C12OCC34C(CC5C(C)C6=CC(=O)OC6=CC5(C)C3C(O)C1O)OC(=O)C(O)C24` (configuration not stated), the T/C by setting is: (dose: 0.25 mg/kg/injection, schedule: Q04DX003 (ip), vehicle: Klucel (hydroxypropylcellulose) (HPC)) 107 % of control; (dose: 0.43 mg/kg/injection, schedule: Q04DX003 (ip), vehicle: Klucel (hydroxypropylcellulose) (HPC)) 107 % of control; (dose: 0.5 mg/kg/injection, schedule: Q04DX004 (ip), vehicle: Klucel (hydroxypropylcellulose) (HPC)) 111 % of control and 113 % of control; (dose: 0.72 mg/kg/injection, schedule: Q04DX003 (ip), vehicle: Klucel (hydroxypropylcellulose) (HPC)) 103 % of control; (dose: 1.0 mg/kg/injection, schedule: Q04DX004 (ip), vehicle: Klucel (hydroxypropylcellulose) (HPC)) 116 % of control and 122 % of control; (dose: 1.2 mg/kg/injection, schedule: Q04DX003 (ip), vehicle: Klucel (hydroxypropylcellulose) (HPC)) 110 % of control. The T/C (dose: 2.0 mg/kg/injection, schedule: Q04DX003 (ip), vehicle: Klucel (hydroxypropylcellulose) (HPC)) is 112 % of control; the T/C (dose: 2.0 mg/kg/injection, schedule: Q04DX004 (ip), vehicle: Klucel (hydroxypropylcellulose) (HPC)) was 123 % of control; the T/C (dose: 4.0 mg/kg/injection, schedule: Q04DX004 (ip), vehicle: Klucel (hydroxypropylcellulose) (HPC)) is 116 % of control.

On to `N=C(N)c1ccc(Nc2ccc(-c3cc4ccc(C(=N)N)cc4[nH]3)cc2)cc1`, for which the T/C (dose: 3.75 mg/kg/injection, schedule: Q04DX004 (ip), vehicle: Klucel (hydroxypropylcellulose) (HPC)) was 115 % of control.

`Cc1c(-c2ccc(C3CCCCC3)cc2)nc2ccc(F)cc2c1C(=O)O`: the T/C was 114 % of control and 121 % of control under setting [2]; 118 % of control and 122 % of control under setting [3]; 152 % of control under setting [12].
